According to patent US20240209028A1, “CNP COMPOUNDS” (priority 2022, published 2024):
Starred links: 1 amine or outer side, 2 acyl side, 3 side chain; linkers in the order of their positions; H or OH if unused. Positions of bridges follow the written chain, without caps; N, C: chain ends. Residues, ends and D or L forms follow the SMILES beside them. *: point of attachment. C18 diacid = O=C(O)CCCCCCCCCCCCCCCCC(=O)*; γGlu = O=C(O)[C@H](CCC(=O)[*:2])N[*:1]; AEEA = NCCOCCOCC(=O)O

target: T1, human natriuretic peptide receptor 2 (hNPR2) (Homo sapiens, UniProt P20594); assay: In vitro hNPR2 activity assay (cGMP GloSensor reporter, HEK293); assay type: cell-based; conditions: potency relative to CNP22 (0065)
T1 construct: expressed in transfected cells; host or cells: HEK293 (ATCC CRL-1573), clone 35, co-transfected with pGloSensor-42F
T1 sequence (P20594 23-1047): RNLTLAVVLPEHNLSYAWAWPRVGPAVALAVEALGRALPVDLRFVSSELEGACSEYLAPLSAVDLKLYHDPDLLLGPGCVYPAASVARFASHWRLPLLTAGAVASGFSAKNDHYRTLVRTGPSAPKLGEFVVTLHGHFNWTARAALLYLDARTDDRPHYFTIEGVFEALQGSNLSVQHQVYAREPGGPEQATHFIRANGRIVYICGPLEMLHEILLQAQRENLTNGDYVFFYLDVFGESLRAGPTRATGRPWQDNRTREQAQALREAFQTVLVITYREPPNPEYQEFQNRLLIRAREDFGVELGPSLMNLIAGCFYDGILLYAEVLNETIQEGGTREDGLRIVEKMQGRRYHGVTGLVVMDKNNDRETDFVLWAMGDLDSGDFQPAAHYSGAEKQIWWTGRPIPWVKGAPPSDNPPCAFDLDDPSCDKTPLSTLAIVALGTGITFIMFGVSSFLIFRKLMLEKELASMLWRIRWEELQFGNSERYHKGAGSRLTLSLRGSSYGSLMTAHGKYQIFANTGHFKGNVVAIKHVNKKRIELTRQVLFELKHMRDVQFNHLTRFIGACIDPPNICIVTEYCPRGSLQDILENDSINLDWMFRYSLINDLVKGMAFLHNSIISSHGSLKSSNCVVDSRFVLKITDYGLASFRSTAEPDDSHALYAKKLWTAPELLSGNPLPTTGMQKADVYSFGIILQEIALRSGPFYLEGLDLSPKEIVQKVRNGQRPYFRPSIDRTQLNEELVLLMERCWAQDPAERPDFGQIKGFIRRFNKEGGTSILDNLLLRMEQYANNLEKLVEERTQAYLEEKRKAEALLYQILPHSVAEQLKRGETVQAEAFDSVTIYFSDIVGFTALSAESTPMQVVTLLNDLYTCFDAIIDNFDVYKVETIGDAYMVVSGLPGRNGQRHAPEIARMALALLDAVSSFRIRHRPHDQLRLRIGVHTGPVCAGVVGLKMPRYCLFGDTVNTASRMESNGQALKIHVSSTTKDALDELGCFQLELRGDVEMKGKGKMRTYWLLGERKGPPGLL
In short: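 Potency is the EC50 from a four-parameter logistic fit, also expressed relative to the in-plate CNP22 control (×100), with at least two replicates. Compounds (ten concentrations, […], HSA-free diluent with 1% OVA, 0.01% Tween20) were incubated 30 min at 37 °C on HEK293 cells co-expressing hNPR2 and a GloSensor cGMP luciferase. Luminescence detected with Bright-Glo.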

| SMILES | hNPR2 0% HSA. [EC50% rel CNP] [%] |
| --- | --- |
| CC[C@H](C)[C@@H]1NC(=O)[C@H](CCCNC(=N)N)NC(=O)[C@H](CC(=O)O)NC(=O)[C@H](CC(C)C)NC(=O)[C@@H]2CCCN2C(=O)[C@H](CC(C)C)NC(=O)CNC(=O)[C@H](Cc2ccccc2)NC(=O)[C@@H](NC(=O)CNC(=O)[C@H](CCC(N)=O)NC(=O)[C@H](CO)NC(=O)CNC(=O)CNC(=O)[C@H](CCCCN)NC(=O)[C@H](CCCCN)NC(=O)[C@H](CCC(N)=O)NC(=O)[C@H](C)NC(=O)CNC(=O)[C@H](CCCCN)NC(=O)[C@H](Cc2ccc(O)cc2)NC(=O)[C@H](CCCCN)NC(=O)[C@H](Cc2c[nH]cn2)NC(=O)[C@H](C)NC(=O)[C@H](CCC(N)=O)NC(=O)[C@@H]2CCCN2C(=O)[C@H](Cc2c[nH]cn2)NC(=O)[C@H](CCC(=O)O)NC(=O)[C@H](CCC(N)=O)NC(=O)COCCOCCNC(=O)COCCOCCNC(=O)CC[C@H](NC(=O)CC[C@H](NC(=O)CC[C@H](NC(=O)CC[C@H](NC(=O)CCCCCCCCCCCCCCCCC(=O)O)C(=O)O)C(=O)O)C(=O)O)C(=O)O)CSSC[C@@H](C(=O)O)NC(=O)CNC(=O)[C@H](CC(C)C)NC(=O)CNC(=O)[C@H](CO)NC(=O)[C@H](CC(C)C)NC(=O)[C@H](CO)NC(=O)CNC1=O [compound 1400] ({C18 diacid-γGlu-γGlu-γGlu-γGlu-AEEA-AEEA}-QEHPQAHKYKGAQKKGGSQGCFGLPLDRIGSLSGLGC-OH; disulfide 21-37) | 85.3 |
| CC[C@H](C)[C@@H]1NC(=O)[C@H](CCCNC(=N)N)NC(=O)[C@H](CC(=O)O)NC(=O)[C@H](CC(C)C)NC(=O)[C@@H]2CCCN2C(=O)[C@H](CC(C)C)NC(=O)CNC(=O)[C@H](Cc2ccccc2)NC(=O)[C@@H](NC(=O)CNC(=O)[C@H](CCC(N)=O)NC(=O)[C@H](CO)NC(=O)CNC(=O)CNC(=O)[C@H](CCCCN)NC(=O)[C@H](CCCCN)NC(=O)[C@H](CCC(N)=O)NC(=O)[C@H](C)NC(=O)CNC(=O)[C@H](CCCCN)NC(=O)[C@H](Cc2ccc(O)cc2)NC(=O)[C@H](CCCCN)NC(=O)[C@H](CCCNC(=N)N)NC(=O)[C@H](C)NC(=O)[C@H](CCC(N)=O)NC(=O)[C@@H]2CCCN2C(=O)[C@H](Cc2c[nH]cn2)NC(=O)[C@H](CCC(=O)O)NC(=O)[C@H](CCC(N)=O)NC(=O)COCCOCCNC(=O)COCCOCCNC(=O)CC[C@H](NC(=O)CC[C@H](NC(=O)CC[C@H](NC(=O)CC[C@H](NC(=O)CC[C@H](NC(=O)CC[C@H](NC(=O)CCCCCCCCCCCCCCCCC(=O)O)C(=O)O)C(=O)O)C(=O)O)C(=O)O)C(=O)O)C(=O)O)CSSC[C@@H](C(=O)O)NC(=O)CNC(=O)[C@H](CC(C)C)NC(=O)CNC(=O)[C@H](CO)NC(=O)[C@H](CC(C)C)NC(=O)[C@H](CO)NC(=O)CNC1=O [compound 1403] ({C18 diacid-γGlu-γGlu-γGlu-γGlu-γGlu-γGlu-AEEA-AEEA}-QEHPQARKYKGAQKKGGSQGCFGLPLDRIGSLSGLGC-OH; disulfide 21-37) | 87.1 |
| CC[C@H](C)[C@@H]1NC(=O)[C@H](CCCNC(=N)N)NC(=O)[C@H](CC(=O)O)NC(=O)[C@H](CC(C)C)NC(=O)[C@@H]2CCCN2C(=O)[C@H](CC(C)C)NC(=O)CNC(=O)[C@H](Cc2ccccc2)NC(=O)[C@@H](NC(=O)CNC(=O)[C@H](CCCCN)NC(=O)[C@H](CO)NC(=O)[C@@H](NC(=O)CNC(=O)[C@@H](NC(=O)[C@H](CCCCN)NC(=O)[C@H](CCC(N)=O)NC(=O)[C@H](C)NC(=O)CNC(=O)[C@H](Cc2c[nH]cn2)NC(=O)[C@H](Cc2ccc(O)cc2)NC(=O)[C@H](CCCCN)NC(=O)[C@H](CCCNC(=N)N)NC(=O)[C@H](C)NC(=O)COCCOCCNC(=O)COCCOCCNC(=O)CC[C@H](NC(=O)CC[C@H](NC(=O)CC[C@H](NC(=O)CCCCCCCCCCCCCCCCC(=O)O)C(=O)O)C(=O)O)C(=O)O)[C@@H](C)O)C(C)C)CSSC[C@@H](C(=O)O)NC(=O)CNC(=O)[C@H](CC(C)C)NC(=O)CNC(=O)[C@H](CO)NC(=O)[C@H](CC(C)C)NC(=O)[C@H](CO)NC(=O)CNC1=O [compound 1423] ({C18 diacid-γGlu-γGlu-γGlu-AEEA-AEEA}-ARKYHGAQKTGVSKGCFGLPLDRIGSLSGLGC-OH; disulfide 16-32) | 37.7 |
